Among the data in patent US20230322770A1, “SUBSTITUTED HETEROARYL COMPOUNDS USEFUL AS INHIBITORS OF TLR9” (BRISTOL-MYERS SQUIBB COMPANY, priority 2020, published 2023) are IC50 values, retold here.

Common to all, as to format: cell-based
For one assay, the target named is T1, human TLR7 (Homo sapiens, UniProt Q9NYK1).
T1 construct: host or cells: HEK-Blue cells (HEK293-derived reporter line)
T1 sequence (Q9NYK1 27-1049): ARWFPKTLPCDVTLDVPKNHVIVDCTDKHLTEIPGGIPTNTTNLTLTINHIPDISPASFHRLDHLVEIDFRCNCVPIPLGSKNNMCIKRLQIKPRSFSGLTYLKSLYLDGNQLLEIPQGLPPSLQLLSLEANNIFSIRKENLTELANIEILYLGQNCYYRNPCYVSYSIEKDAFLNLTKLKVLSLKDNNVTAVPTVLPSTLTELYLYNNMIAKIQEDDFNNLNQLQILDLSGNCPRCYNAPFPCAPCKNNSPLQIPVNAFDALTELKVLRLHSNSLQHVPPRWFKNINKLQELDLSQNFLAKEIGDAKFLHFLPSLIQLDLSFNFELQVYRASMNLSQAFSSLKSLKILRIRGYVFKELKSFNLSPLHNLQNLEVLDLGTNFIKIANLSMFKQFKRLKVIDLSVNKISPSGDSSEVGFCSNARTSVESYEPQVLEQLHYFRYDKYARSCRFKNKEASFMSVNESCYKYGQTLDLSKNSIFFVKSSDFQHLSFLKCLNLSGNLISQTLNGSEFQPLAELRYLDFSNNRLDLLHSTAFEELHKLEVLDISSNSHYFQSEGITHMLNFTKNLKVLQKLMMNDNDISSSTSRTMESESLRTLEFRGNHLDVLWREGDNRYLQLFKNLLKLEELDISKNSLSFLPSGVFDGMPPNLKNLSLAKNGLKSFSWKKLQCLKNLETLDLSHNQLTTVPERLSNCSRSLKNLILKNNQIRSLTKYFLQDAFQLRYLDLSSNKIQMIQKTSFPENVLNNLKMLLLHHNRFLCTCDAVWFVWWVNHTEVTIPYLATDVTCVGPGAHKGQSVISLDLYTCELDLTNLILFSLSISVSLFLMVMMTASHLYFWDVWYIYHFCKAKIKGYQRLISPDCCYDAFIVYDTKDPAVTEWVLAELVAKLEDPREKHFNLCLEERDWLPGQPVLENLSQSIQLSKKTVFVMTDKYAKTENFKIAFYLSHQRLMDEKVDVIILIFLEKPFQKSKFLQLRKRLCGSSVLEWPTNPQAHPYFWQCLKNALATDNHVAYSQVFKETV
Put plainly: TLR7 inhibition reporter assay (HEK-Blue cells, SEAP reporter). As to conditions: HEK-Blue cells overexpressing human TLR7; stimulated with gardiquimod 7.5 μM; SEAP after 22 hour incubation. As for the experimental part:
(§1) TLR7/8/9 Inhibition Reporter Assays
(§2) HEK-Blue™-cells (Invivogen) overexpressing human TLR7, TLR8 or TLR9 receptors were used for screening inhibitors of these receptors using an inducible SEAP (secreted embryonic alkaline phosphatase) reporter gene under the control of the IFN-β minimal promoter fused to five NF-κB and AP-1-binding sites. Briefly, cells are seeded into Greiner 384 well plates (15000 cells per well for TLR7, 20,000 for TLR8 and 25,000 for TLR9) and then treated with test compounds in DMSO to yield a final dose response concentration range of 0.05 nM-50 μM. After a 30 minute compound pre-treatment at room temperature, the cells are then stimulated with a TLR7 ligand (gardiquimod at a final concentration of 7.5 μM), TLR8 ligand (R848 at a final concentration of 15.9 μM) or TLR9 ligand (ODN2006 at a final concentration of 5 nM) to activate NF-κB and AP-1 which induce the production of SEAP. After a 22 hour incubation at 37° C., 5% CO2, SEAP levels are determined with the addition of HEK-Blue™ Detection reagent (Invivogen), a cell culture medium that allows for detection of SEAP, according to manufacturer's specifications. The percent inhibition is determined as the % reduction in the HEK-Blue signal present in wells treated with agonist plus DMSO alone compared to wells treated with a known inhibitor.
On the technique in general: A reporter such as luciferase makes a cellular process visible.

In another assay the target is T2, human TLR8 (Homo sapiens, UniProt Q9NR97).
T2 construct: host or cells: HEK-Blue cells (HEK293-derived reporter line)
T2 sequence (Q9NR97 27-1041): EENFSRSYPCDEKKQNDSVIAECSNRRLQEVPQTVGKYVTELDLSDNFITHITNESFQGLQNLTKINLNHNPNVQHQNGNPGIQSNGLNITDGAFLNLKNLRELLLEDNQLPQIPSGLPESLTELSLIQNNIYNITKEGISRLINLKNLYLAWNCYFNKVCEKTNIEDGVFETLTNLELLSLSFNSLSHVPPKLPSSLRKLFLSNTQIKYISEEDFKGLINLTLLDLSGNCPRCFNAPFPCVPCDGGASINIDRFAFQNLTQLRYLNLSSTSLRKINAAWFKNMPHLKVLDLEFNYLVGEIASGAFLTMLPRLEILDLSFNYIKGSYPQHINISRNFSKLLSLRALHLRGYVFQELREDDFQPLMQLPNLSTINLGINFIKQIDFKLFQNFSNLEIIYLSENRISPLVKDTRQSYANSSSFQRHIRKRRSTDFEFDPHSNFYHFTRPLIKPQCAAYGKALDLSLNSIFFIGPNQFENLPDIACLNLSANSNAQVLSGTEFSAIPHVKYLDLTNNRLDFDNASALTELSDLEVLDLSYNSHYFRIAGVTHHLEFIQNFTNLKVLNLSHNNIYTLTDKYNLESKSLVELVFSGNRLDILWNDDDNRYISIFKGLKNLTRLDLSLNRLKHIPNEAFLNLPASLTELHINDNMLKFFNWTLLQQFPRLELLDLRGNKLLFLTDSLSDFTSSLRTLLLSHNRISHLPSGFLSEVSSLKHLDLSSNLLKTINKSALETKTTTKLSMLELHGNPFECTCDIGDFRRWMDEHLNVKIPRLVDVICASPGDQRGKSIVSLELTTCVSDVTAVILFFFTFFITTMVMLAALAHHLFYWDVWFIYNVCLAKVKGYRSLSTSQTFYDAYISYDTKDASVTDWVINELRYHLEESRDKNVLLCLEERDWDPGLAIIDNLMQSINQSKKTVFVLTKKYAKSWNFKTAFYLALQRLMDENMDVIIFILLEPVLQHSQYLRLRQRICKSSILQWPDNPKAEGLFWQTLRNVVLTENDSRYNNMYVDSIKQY
Put plainly: TLR8 inhibition reporter assay (HEK-Blue cells, SEAP reporter). The note with it: HEK-Blue cells overexpressing human TLR8; stimulated with R848 15.9 μM; SEAP after 22 hour incubation. As for the experimental part:
as §1, §2

The next assay has as its target T3, human TLR9 (Homo sapiens, UniProt Q9NR96).
T3 construct: host or cells: HEK-Blue cells (HEK293-derived reporter line)
T3 sequence (Q9NR96 26-1032): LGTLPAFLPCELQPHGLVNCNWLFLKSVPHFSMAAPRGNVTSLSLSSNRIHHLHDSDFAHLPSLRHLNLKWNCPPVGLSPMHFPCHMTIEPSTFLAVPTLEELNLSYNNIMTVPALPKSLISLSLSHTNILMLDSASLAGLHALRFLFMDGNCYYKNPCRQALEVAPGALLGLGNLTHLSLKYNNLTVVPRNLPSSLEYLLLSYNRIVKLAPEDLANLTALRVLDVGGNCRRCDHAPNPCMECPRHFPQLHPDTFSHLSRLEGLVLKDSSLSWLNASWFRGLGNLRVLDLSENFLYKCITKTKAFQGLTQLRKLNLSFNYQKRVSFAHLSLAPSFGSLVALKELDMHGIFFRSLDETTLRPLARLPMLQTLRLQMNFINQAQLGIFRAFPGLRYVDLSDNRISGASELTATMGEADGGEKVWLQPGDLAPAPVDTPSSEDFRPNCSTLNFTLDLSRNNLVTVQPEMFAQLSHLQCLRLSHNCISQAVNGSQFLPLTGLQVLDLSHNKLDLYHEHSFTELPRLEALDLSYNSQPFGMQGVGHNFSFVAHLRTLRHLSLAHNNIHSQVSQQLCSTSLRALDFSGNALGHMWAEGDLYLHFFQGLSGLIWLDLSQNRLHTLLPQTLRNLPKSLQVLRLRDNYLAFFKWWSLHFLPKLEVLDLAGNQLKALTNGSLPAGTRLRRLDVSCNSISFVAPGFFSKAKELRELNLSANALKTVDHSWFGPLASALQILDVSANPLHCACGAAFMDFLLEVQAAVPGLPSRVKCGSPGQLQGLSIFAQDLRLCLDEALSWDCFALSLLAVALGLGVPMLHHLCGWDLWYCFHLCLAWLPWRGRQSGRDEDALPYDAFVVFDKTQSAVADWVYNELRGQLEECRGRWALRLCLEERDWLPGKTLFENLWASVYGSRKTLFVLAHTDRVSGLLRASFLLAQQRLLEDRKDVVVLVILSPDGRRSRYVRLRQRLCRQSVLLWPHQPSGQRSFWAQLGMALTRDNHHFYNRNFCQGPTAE
The assay can be described thus: TLR9 inhibition reporter assay (HEK-Blue cells, SEAP reporter). The note with it: HEK-Blue cells overexpressing human TLR9; stimulated with ODN2006 5 nM; SEAP after 22 hour incubation. The method, then:
as §1, §2

For the molecule `Cn1c(-c2ccc(S(C)(=O)=O)cc2)cc2ncc(-c3ccc(N4CCN(CC(C)(C)O)CC4)cc3)cc21` [Example 15, 2-methyl-1-(4-(4-(1-methyl-2-(4-(methylsulfonyl)phenyl)-1H-pyrrolo[3,2-b]pyridin-6-yl)phenyl)piperazin-1-yl)propan-2-ol], the values for the IC50 against human TLR7 and against human TLR8 were ≥ 50 µM and 11.2 µM, respectively.

For `CN(C)S(=O)(=O)c1cccc(-c2cc3ncc(-c4ccc(N5CCN(C6CC6)CC5)cc4)cc3n2C)c1` [Example 44], on human TLR9, it took 0.7 µM to reach half-maximal inhibition (IC50).

As for `Cn1c(-c2ccc(S(C)(=O)=O)cc2)cc2ncc(-c3ccc(N4CCN(CCC(C)(C)O)CC4)cc3)cc21` [Example 16, -methyl-4-(4-(4-(1-methyl-2-(4-(methylsulfonyl)phenyl)-1H-pyrrolo[3,2-b]pyridin-6-yl)phenyl)piperazin-1-yl)butan-2-ol], the IC50 – broadly, the concentration that inhibits the measured activity by half – against human TLR7 was found to be 8.7 µM; at human TLR8, 4.7 µM.

`COc1ccc(-c2cc3ncc(-c4ccc(N5CCN(CC(C)(C)O)CC5)cc4)cc3n2C)cc1OC` [Example 4, 1-(4-(4-(2-(3,4-Dimethoxyphenyl)-1-methyl-1H-pyrrolo[3,2-b]pyridin-6-yl)phenyl)piperazin-1-yl)-2-methylpropan-2-ol] returned an IC50 against human TLR9 of 0.256 µM.

As for `CC(C)CN1CCN(c2ccc(-c3cnc4cc(-c5ccc(S(C)(=O)=O)cc5)[nH]c4c3)cc2)CC1` [Example 14, 6-(4-(4-isobutylpiperazin-1-yl)phenyl)-2-(4-(methylsulfonyl)phenyl)-1H-pyrrolo[3,2-b]pyridine], the IC50 at human TLR7 is 29.6 µM; against human TLR8, > 50 µM.

As for `CC(C)N1CCN(c2ccc(-c3cnc4cc(-c5ccc(S(C)(=O)=O)cc5)[nH]c4c3)cc2)CC1` [Example 11, 6-(4-(4-isopropylpiperazin-1-yl)phenyl)-2-(4-(methylsulfonyl)phenyl)-1H-pyrrolo[3,2-b]pyridine], the IC50 was 1.9 µM against human TLR7 and > 50 µM on human TLR8.

For the molecule `Cn1c(-c2ccc(S(C)(=O)=O)cc2)cc2ncc(-c3ccc(N4CCN5CCCC5C4)cc3)cc21` (centres unmarked) [Example 27], the IC50 on human TLR9 is 0.275 µM.

Regarding `COc1ccc(-c2cc3ncc(-c4ccc(N5CCN(CCC(C)(C)O)CC5)cc4)cc3n2C)cc1OC` [Example 12, 4-(4-(4-(2-(3,4-dimethoxyphenyl)-1-methyl-1H-pyrrolo[3,2-b]pyridin-6-yl)phenyl)piperazin-1-yl)-2-methylbutan-2-ol], the IC50 at human TLR7 came out at 4.8 µM; at human TLR8, 1.3 µM.

On to `COc1ccc(-c2cc3ncc(-c4ccc(N5CCNCC5)cc4)cc3n2C)cc1OC` [Example 13, 2-(3,4-dimethoxyphenyl)-1-methyl-6-(4-(piperazin-1-yl)phenyl)-1H-pyrrolo[3,2-b] pyridine], for which the figures for the IC50 against human TLR7 and at human TLR8 were 3 µM and 3.6 µM, respectively.

In the case of `COc1ccc(-c2cc3ncc(-c4ccc(N5CCN(CC6CC6)CC5)cc4)cc3n2C)cc1OC` [Example 8, 6-(4-(4-(cyclopropylmethyl)piperazin-1-yl)phenyl)-2-(3,4-dimethoxyphenyl)-1-methyl-1H-pyrrolo[3,2-b]pyridine], the IC50 against human TLR7 is 14.4 µM; at human TLR8, 5.6 µM.

Take `COc1ccc(-c2cc3ncc(-c4ccc(N5CCN(C(C)C)CC5)cc4)cc3n2C)cc1F` [Example 10, 2-(3-fluoro-4-methoxyphenyl)-6-(4-(4-isopropylpiperazin-1-yl)phenyl)-1-methyl-1H-pyrrolo[3,2-b]pyridine]: the IC50 against human TLR7 stood at 15.5 µM; at human TLR8, 41.7 µM.

Regarding `COc1ccc(-c2cc3ncc(-c4ccc(N5CCN(C(C)C)CC5)nc4)cc3n2C)cc1OC` [Example 9, 2-(3,4-dimethoxyphenyl)-6-(6-(4-isopropylpiperazin-1-yl)pyridin-3-yl)-1-methyl-1H-pyrrolo[3,2-b]pyridine], the IC50 at human TLR7 came to 4.7 µM; against human TLR8, 8.7 µM.

On to `COc1ccc(-c2cc3ncc(-c4ccc(C(=O)N5CCN(C(C)C)CC5)cc4)cc3n2C)cc1OC` [Example 5, (4-(2-(3,4-Dimethoxyphenyl)-1-methyl-1H-pyrrolo[3,2-b]pyridin-6-yl)phenyl)(4-isopropylpiperazin-1-yl)methanone], for which the IC50 came to 7.2 µM against human TLR7 and 10.2 µM against human TLR8.
